Reference: patent US20260226049A1, “NITROGEN-CONTAINING HETEROCYCLIC COMPOUND, PREPARATION METHOD THEREFOR, AND USE THEREOF” (BIVISION PHARMACEUTICALS, INC, priority 2023, published 2026)
Like-named read-outs stand apart in the source and are kept apart here.

Key:
HT1080 2 #FAP cells = experiment: Tissue distribution in FAP-positive tumor-bearing mice; format: in vivo, mice (Balb/c Nude); conditions: 24 hours after tail vein injection, approximately 3.7 MBq/mouse
Text: Tissue distribution in FAP-positive tumor-bearing mice: 2×10^6 HT1080 2 #FAP cells (in 50% Matrigel, Corning) were subcutaneously inoculated into the right shoulder of mice (Balb/c Nude, Vital River) aged approximately 6-9 weeks. When the tumors grew to approximately 150-350 mm^3 in size, the following “7. General ^177Lu Labeling Experimental Method” was used to label JHH3, JHH8, JHH9, JHDB7, and JHDB8 compounds. Subsequently, ^177Lu-JHH3, ^177Lu-JHH8, ^177Lu-JHH9, ^177Lu-JHDB7, ^177Lu-JHDB8, and ^177Lu-OncoFAP DOTAGA radiolabeled compounds were injected into the mice via the tail vein (approximately 3.7 MBq/mouse). 24 hours after administration, the animals were euthanized by CO2 inhalation, and blood and organs (liver, kidney, muscle, tumor) were collected after euthanasia.
After organ collection, the samples were rinsed twice with deionized water and dried, then placed in pre-weighed tubes and weighed again to calculate the sample weight. The samples were measured on the day of collection. All blood samples and tissue samples were measured for radioactive counts using a gamma counter.

HT1080 8 #cells = experiment: Cell competitive binding assay against ^177Lu-radiolabeled FAPi-46
Description: (1) HT1080 8 #cells in the logarithmic growth phase were prepared into a cell suspension, and the cell density was adjusted to 1×10^4/mL. 1 mL of the suspension was seeded into a 24-well cell culture plate. The plate was incubated overnight in a 37° C. incubator.
(2) The cell culture medium was aspirated, and the cells were washed once with PBS, followed by the addition of 975 μL of additive-free medium.
(3) To each well, 25 µL of ^177Lu-radiolabeled FAPi-46 (Nanchang Tanzhen Biotechnology Co., Ltd., CAS: 2374782-04-2) at a fixed concentration (final concentration in culture medium: 1.35 μCi/mL) and varying concentrations (final concentrations in culture medium: 1000 ng/mL, 100 ng/ml, 10 ng/ml, 1 ng/mL, 0.1 ng/ml, 0.01 ng/mL, 0.001 ng/mL, 0 ng/ml) of unlabeled test compounds JHH8, JHDB8, and JHH9 were added.
(4) The mixture was incubated on ice for 2 hours.
(5) The cells were washed three times with ice-cold PBS.
(6) The cells were lysed with 0.5 mL of 1 M sodium hydroxide, washed twice with 0.5 mL of PBS, and the sodium hydroxide solution (0.5 mL) and PBS solutions (0.5 mL×2) were collected for uptake counting.
The control compound was OncoFAP-DOTAGA (structural formula: […]
The cell competitive binding of compounds JHH5, JHH4, JHH10, JHH8, H4b, H5b, and H8b was tested in the same batch using the above method, and the experimental results are shown in Table 3 and FIG. 3.

FAP protein = target: T1, FAP protein (Homo sapiens, UniProt Q12884); experiment: Biacore test of ligand binding to FAP protein; conditions: FAP protein on SA chip, 15° C., 1:1 binding model
T1 construct: purchased Sinobiological
T1 sequence (Q12884 1-760): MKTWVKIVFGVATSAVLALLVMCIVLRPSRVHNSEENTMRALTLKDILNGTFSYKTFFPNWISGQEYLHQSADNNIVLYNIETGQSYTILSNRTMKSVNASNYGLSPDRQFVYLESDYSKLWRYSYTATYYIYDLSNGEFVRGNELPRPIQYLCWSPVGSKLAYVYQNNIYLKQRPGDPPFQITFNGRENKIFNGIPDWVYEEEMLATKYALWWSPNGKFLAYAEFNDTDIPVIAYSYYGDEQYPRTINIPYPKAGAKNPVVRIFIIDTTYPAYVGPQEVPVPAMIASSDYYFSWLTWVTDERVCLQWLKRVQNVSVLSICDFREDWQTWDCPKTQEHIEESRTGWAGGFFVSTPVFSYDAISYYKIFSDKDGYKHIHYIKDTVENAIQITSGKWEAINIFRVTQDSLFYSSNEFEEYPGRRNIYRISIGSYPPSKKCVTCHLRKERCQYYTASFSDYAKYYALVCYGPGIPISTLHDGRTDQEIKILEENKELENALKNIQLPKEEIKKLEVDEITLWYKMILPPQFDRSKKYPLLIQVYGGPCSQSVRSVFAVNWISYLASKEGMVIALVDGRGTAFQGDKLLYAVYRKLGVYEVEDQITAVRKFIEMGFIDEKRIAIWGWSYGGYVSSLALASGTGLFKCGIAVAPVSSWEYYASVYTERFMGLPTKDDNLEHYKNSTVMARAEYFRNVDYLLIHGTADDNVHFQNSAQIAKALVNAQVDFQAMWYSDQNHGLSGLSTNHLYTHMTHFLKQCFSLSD
Description: The Biacore 8K (Cytiva) instrument was used to detect ligand binding of the FAP protein (Sinobiological). The FAP protein was captured on the SA chip. Before ligand immobilization (flow paths 1 and 2, flow rate of 10 μL/min), the FAP protein (10 μg/mL, flow rate of 5 μL/min, injection time of 600 s) was immobilized on flow path 2 using running buffer, and the sensor surface was conditioned with three consecutive injections of 1 M NaCl in 50 mM NaOH. After each ligand injection, additional washing was carried out with isopropanol in 1 M NaCl and 50 mM NaOH (flow paths 1 and 2, flow rate of 10 μL/min, injection time of 60 s).
The test compounds were dissolved in 100% dimethyl sulfoxide and diluted to 10 mM, then further diluted in the assay buffer (PBS, pH 7.4, 1 mM TCEP ([…]), 0.05% P20, 2% dimethyl sulfoxide) to appropriate maximum concentrations. The analyte was run under the following conditions: analysis temperature=15° C., analysis step=all set to LMW kinetics; cycle type=single cycle (90 s contact time, 1800 s dissociation time, 30 μL/min flow rate, flow channels 1, 2); flow channel detection=2-1). Data evaluation was performed using Biacore Insight Evaluation Software, and the data were fitted to a 1:1 binding model.
The Biacore results are shown in Table 1: pKD=−Log KD, where KD is the binding affinity of the compound to the FAP protein as measured by Biacore. The binding affinity is expressed by KD (M)=Kd(1/s)/Ka(1/Ms). Where A: pKD>8, B: 7<pKD<8, C: 6<pKD<7, D: pKD<6.

[1] = EC50 (ng/mL) converted with molecular weight, read-out: EC50
[2] = competition with ^177Lu-FAPi-46, on ice 2 hours

Structure (SMILES) | uptake in other organs compared to the reference compound (HT1080 2 #FAP cells) | uptake in tumor tissues compared to the reference compound (HT1080 2 #FAP cells) | EC50 (HT1080 8 #cells; [1]) | EC50 (HT1080 8 #cells; [2]) | Kd (FAP protein)
N#C[C@@H]1CC(F)(F)CN1C(=O)CNC(=O)c1cc2c(s1)CCN(C(=O)CCC(=O)NCCNC(=O)CCC(C(=O)O)N1CCN(CC(=O)O)CCN(CC(=O)O)CCN(CC(=O)O)CC1)C2 (stereo partly drawn) [^177Lu-JHH3, metal not drawn] | lower uptake in other organs | higher uptake in tumor tissues | – | – | –
N#C[C@@H]1CC(F)(F)CN1C(=O)CNC(=O)c1cccc2c1CNCC2 [Compound H4b] | – | – | 34.2 nM | 11.89 ng/mL | –
N#C[C@@H]1CC(F)(F)CN1C(=O)CNC(=O)c1cccc2c1CCCN2C(=O)CCC(=O)NCCNC(=O)CCC(C(=O)O)N1CCN(CC(=O)O)CCN(CC(=O)O)CCN(CC(=O)O)CC1 (stereo partly drawn) [JHH10] | – | – | 3.56 nM | 3.38 ng/mL | < 10 nM
N#C[C@@H]1CC(F)(F)CN1C(=O)CNC(=O)c1ccnc2c(NC(=O)CCC(=O)NCCNC(=O)CCC(C(=O)O)N3CCN(CC(=O)O)CCN(CC(=O)O)CCN(CC(=O)O)CC3)cccc12 (stereo partly drawn) [OncoFAP-DOTAGA, reference compound] | – | – | 2.81 nM | 2.699 ng/mL | –
N#C[C@@H]1CC(F)(F)CN1C(=O)CNC(=O)c1ccc2c(c1)CCCN2 [Compound H8b] | – | – | 9.24 nM | 3.219 ng/mL | –
N#C[C@@H]1CC(F)(F)CC1C(=O)CNC(=O)c1ccc2c(c1)CCCN2C(=O)CCC(=O)NCCNC(=O)CCC(C(=O)O)N1CCN(CC(=O)O)CCN(CC(=O)O)CCN(CC(=O)O)CC1 (stereo partly drawn) [JHH8] | – | – | 14.5 nM | 13.77 ng/mL | < 10 nM
N#C[C@@H]1CC(F)(F)CN1C(=O)CNC(=O)c1cccc2c1CN(C(=O)CCC(=O)NCCNC(=O)CCC(C(=O)O)N1CCN(CC(=O)O)CCN(CC(=O)O)CCN(CC(=O)O)CC1)CC2 (stereo partly drawn) [JHH4] | – | – | 1.3 nM | 1.231 ng/mL | –
N#C[C@@H]1CC(F)(F)CN1C(=O)CNC(=O)c1cccc2c1CCNC2 [Compound H5b] | – | – | 452 nM | 157.5 ng/mL | –
